Assay results: ChEMBL document CHEMBL4765227, “Hit to lead optimization of a series of N-[4-(1,3-benzothiazol-2-yl)phenyl]acetamides as monoacylglycerol lipase inhibitors with potential anticancer activity” (Eur J Med Chem, 2016)

Columns and labels:
Format in all cases: functional
Conditions in all cases: read-out: GI
U-251 = test: Growth inhibition of human U-251 cells at 10 uM incubated for 48 hrs by sulforhodamine B assay relative to control
786-0 = test: Growth inhibition of human 786-0 cells at 10 uM incubated for 48 hrs by sulforhodamine B assay relative to control
CAKI-1 = test: Growth inhibition of human CAKI-1 cells at 10 uM incubated for 48 hrs by sulforhodamine B assay relative to control
MDA-MB-468 = test: Growth inhibition of human MDA-MB-468 cells at 10 uM incubated for 48 hrs by sulforhodamine B assay relative to control
MOLT-4 = test: Growth inhibition of human MOLT-4 cells at 10 uM incubated for 48 hrs by sulforhodamine B assay relative to control
NCI-H226 = test: Growth inhibition of human NCI-H226 cells at 10 uM incubated for 48 hrs by sulforhodamine B assay relative to control
RPMI-8226 = test: Growth inhibition of human RPMI-8226 cells at 10 uM incubated for 48 hrs by sulforhodamine B assay relative to control
SK-MEL-28 = test: Growth inhibition of human SK-MEL-28 cells at 10 uM incubated for 48 hrs by sulforhodamine B assay relative to control
MCF7 = test: Growth inhibition of human MCF7 cells at 10 uM incubated for 48 hrs by sulforhodamine B assay relative to control
OVCAR-4 = test: Growth inhibition of human OVCAR-4 cells at 10 uM incubated for 48 hrs by sulforhodamine B assay relative to control
UACC-257 = test: Growth inhibition of human UACC-257 cells at 10 uM incubated for 48 hrs by sulforhodamine B assay relative to control
IGROV-1 = test: Growth inhibition of human IGROV-1 cells at 10 uM incubated for 48 hrs by sulforhodamine B assay relative to control
OVCAR-3 = test: Growth inhibition of human OVCAR-3 cells at 10 uM incubated for 48 hrs by sulforhodamine B assay relative to control
UACC-62 = test: Growth inhibition of human UACC-62 cells at 10 uM incubated for 48 hrs by sulforhodamine B assay relative to control
CCRF-CEM = test: Growth inhibition of human CCRF-CEM cells at 10 uM incubated for 48 hrs by sulforhodamine B assay relative to control
DU-145 = test: Growth inhibition of human DU-145 cells at 10 uM incubated for 48 hrs by sulforhodamine B assay relative to control
BT-549 = test: Growth inhibition of human BT-549 cells at 10 uM incubated for 48 hrs by sulforhodamine B assay relative to control
Hs-578T = test: Growth inhibition of human Hs-578T cells at 10 uM incubated for 48 hrs by sulforhodamine B assay relative to control
HOP-92 = test: Growth inhibition of human HOP-92 cells at 10 uM incubated for 48 hrs by sulforhodamine B assay relative to control
SNB-19 = test: Growth inhibition of human SNB-19 cells at 10 uM incubated for 48 hrs by sulforhodamine B assay relative to control
SK-MEL-5 = test: Growth inhibition of human SK-MEL-5 cells at 10 uM incubated for 48 hrs by sulforhodamine B assay relative to control
HOP-62 = test: Growth inhibition of human HOP-62 cells at 10 uM incubated for 48 hrs by sulforhodamine B assay relative to control
TK-10 = test: Growth inhibition of human TK-10 cells at 10 uM incubated for 48 hrs by sulforhodamine B assay relative to control
A549 = test: Growth inhibition of human A549/ATCC cells at 10 uM incubated for 48 hrs by sulforhodamine B assay relative to control
SNB-75 = test: Growth inhibition of human SNB-75 cells at 10 uM incubated for 48 hrs by sulforhodamine B assay relative to control
HCT-15 = test: Growth inhibition of human HCT-15 cells at 10 uM incubated for 48 hrs by sulforhodamine B assay relative to control
NCI/ADR-RES = test: Growth inhibition of human NCI/ADR-RES cells at 10 uM incubated for 48 hrs by sulforhodamine B assay relative to control
HL-60(TB) = test: Growth inhibition of human HL-60(TB) cells at 10 uM incubated for 48 hrs by sulforhodamine B assay relative to control
SK-OV-3 = test: Growth inhibition of human SK-OV-3 cells at 10 uM incubated for 48 hrs by sulforhodamine B assay relative to control
HT-29 = test: Growth inhibition of human HT-29 cells at 10 uM incubated for 48 hrs by sulforhodamine B assay relative to control
M14 = test: Growth inhibition of human M14 cells at 10 uM incubated for 48 hrs by sulforhodamine B assay relative to control
COLO 205 = test: Growth inhibition of human COLO 205 cells at 10 uM incubated for 48 hrs by sulforhodamine B assay relative to control
T47D = test: Growth inhibition of human T47D cells at 10 uM incubated for 48 hrs by sulforhodamine B assay relative to control
SF-295 = test: Growth inhibition of human SF-295 cells at 10 uM incubated for 48 hrs by sulforhodamine B assay relative to control
RXF 393 = test: Growth inhibition of human RXF 393 cells at 10 uM incubated for 48 hrs by sulforhodamine B assay relative to control
PC-3 = test: Growth inhibition of human PC-3 cells at 10 uM incubated for 48 hrs by sulforhodamine B assay relative to control
LOX IMVI = test: Growth inhibition of human LOX IMVI cells at 10 uM incubated for 48 hrs by sulforhodamine B assay relative to control
Malme-3M = test: Growth inhibition of human Malme-3M cells at 10 uM incubated for 48 hrs by sulforhodamine B assay relative to control
HCT-116 = test: Growth inhibition of human HCT-116 cells at 10 uM incubated for 48 hrs by sulforhodamine B assay relative to control
HCC 2998 = test: Growth inhibition of human HCC 2998 cells at 10 uM incubated for 48 hrs by sulforhodamine B assay relative to control
ACHN = test: Growth inhibition of human ACHN cells at 10 uM incubated for 48 hrs by sulforhodamine B assay relative to control
SF-268 = test: Growth inhibition of human SF-268 cells at 10 uM incubated for 48 hrs by sulforhodamine B assay relative to control
SR = test: Growth inhibition of human SR cells at 10 uM incubated for 48 hrs by sulforhodamine B assay relative to control
OVCAR-5 = test: Growth inhibition of human OVCAR-5 cells at 10 uM incubated for 48 hrs by sulforhodamine B assay relative to control

In the case of `O=C(CN1CCOCC1)Nc1ccc(-c2nc3ccccc3s2)cc1`, the inhibition of growth at 10 µM (U-251) is reported as 10.5%, the inhibition of growth at 10 µM (786-0) is reported as -1.3% and the inhibition of growth at 10 µM (CAKI-1) is reported as 0.31%. For the same compound, the inhibition of growth at 10 µM (MDA-MB-468) was 107%, the inhibition of growth at 10 µM (MOLT-4) was 0.57% and the inhibition of growth at 10 µM (NCI-H226) was 4.99%. The inhibition of growth at 10 µM (RPMI-8226) was 6%, the inhibition of growth at 10 µM (SK-MEL-28) was -2.13% and the inhibition of growth at 10 µM (MCF7) was 51.2%. The inhibition of growth at 10 µM (OVCAR-4) was -0.52%, the inhibition of growth at 10 µM (UACC-257) was -1.38% and the inhibition of growth at 10 µM (IGROV-1) was -5.69%. For the same compound, the inhibition of growth at 10 µM (OVCAR-3) was 3.74%, the inhibition of growth at 10 µM (UACC-62) was -0.01% and the inhibition of growth at 10 µM (CCRF-CEM) was 4.51%. For the same compound, the inhibition of growth at 10 µM (DU-145) was -9.1%, the inhibition of growth at 10 µM (BT-549) was -3.57% and the inhibition of growth at 10 µM (Hs-578T) was -9.77%. The inhibition of growth at 10 µM (HOP-92) was 16.7%, the inhibition of growth at 10 µM (SNB-19) was -0.79% and the inhibition of growth at 10 µM (SK-MEL-5) was 7.27%. For the same compound, the inhibition of growth at 10 µM (HOP-62) was -6.41%, the inhibition of growth at 10 µM (TK-10) was -12% and the inhibition of growth at 10 µM (A549) was 6.19%. It also gave an inhibition of growth at 10 µM (SNB-75) of 0.01%, an inhibition of growth at 10 µM (HCT-15) of 6.26% and an inhibition of growth at 10 µM (NCI/ADR-RES) of -4.92%. It also gave an inhibition of growth at 10 µM (HL-60(TB)) of -0.57%, an inhibition of growth at 10 µM (SK-OV-3) of -21% and an inhibition of growth at 10 µM (HT-29) of -3.04%. It also gave an inhibition of growth at 10 µM (M14) of -1.15%, an inhibition of growth at 10 µM (COLO 205) of -15.3% and an inhibition of growth at 10 µM (T47D) of 6.73%. For the same compound, the inhibition of growth at 10 µM (SF-295) was 1.81%, the inhibition of growth at 10 µM (RXF 393) was -11.4% and the inhibition of growth at 10 µM (PC-3) was 6.98%. For the same compound, the inhibition of growth at 10 µM (LOX IMVI) was 0.08%, the inhibition of growth at 10 µM (Malme-3M) was -17% and the inhibition of growth at 10 µM (HCT-116) was 3.9%. The inhibition of growth at 10 µM (HCC 2998) was 12%, the inhibition of growth at 10 µM (ACHN) was -4.03% and the inhibition of growth at 10 µM (SF-268) was -10.3%. The inhibition of growth at 10 µM (SR) was -2.12% and the inhibition of growth at 10 µM (OVCAR-5) was 6.58%.

Work on `CN1CCN(CC(=O)Nc2ccc(-c3nc4ccccc4s3)cc2)CC1` yielded an inhibition of growth at 10 µM (U-251) of 32.5%, an inhibition of growth at 10 µM (786-0) of 21.3% and an inhibition of growth at 10 µM (CAKI-1) of 26.5%. For the same compound, the inhibition of growth at 10 µM (MDA-MB-468) was 111%, the inhibition of growth at 10 µM (MOLT-4) was 22% and the inhibition of growth at 10 µM (NCI-H226) was 3.83%. The inhibition of growth at 10 µM (RPMI-8226) was 11.9%, the inhibition of growth at 10 µM (SK-MEL-28) was 66.2% and the inhibition of growth at 10 µM (MCF7) was 63.2%. For the same compound, the inhibition of growth at 10 µM (OVCAR-4) was 12.7%, the inhibition of growth at 10 µM (UACC-257) was -5.35% and the inhibition of growth at 10 µM (IGROV-1) was 19.4%. It also gave an inhibition of growth at 10 µM (OVCAR-3) of 0.78%, an inhibition of growth at 10 µM (UACC-62) of 136% and an inhibition of growth at 10 µM (CCRF-CEM) of 36.3%. For the same compound, the inhibition of growth at 10 µM (DU-145) was 14.8%, the inhibition of growth at 10 µM (BT-549) was 19.4% and the inhibition of growth at 10 µM (Hs-578T) was 6.34%. It also gave an inhibition of growth at 10 µM (HOP-92) of 64.3%, an inhibition of growth at 10 µM (SNB-19) of 10.3% and an inhibition of growth at 10 µM (SK-MEL-5) of 26.3%. The inhibition of growth at 10 µM (HOP-62) was 12.7%, the inhibition of growth at 10 µM (TK-10) was 5.2% and the inhibition of growth at 10 µM (A549) was 11.4%. For the same compound, the inhibition of growth at 10 µM (SNB-75) was 26.9%, the inhibition of growth at 10 µM (HCT-15) was 47.1% and the inhibition of growth at 10 µM (NCI/ADR-RES) was 14.4%. It also gave an inhibition of growth at 10 µM (HL-60(TB)) of 3.63%, an inhibition of growth at 10 µM (SK-OV-3) of 5.77% and an inhibition of growth at 10 µM (HT-29) of 60.4%. The inhibition of growth at 10 µM (M14) was 32.4%, the inhibition of growth at 10 µM (COLO 205) was 60.3% and the inhibition of growth at 10 µM (T47D) was 45.9%. The inhibition of growth at 10 µM (SF-295) was 8.86%, the inhibition of growth at 10 µM (RXF 393) was 45.7% and the inhibition of growth at 10 µM (PC-3) was 16.4%. It also gave an inhibition of growth at 10 µM (LOX IMVI) of 134%, an inhibition of growth at 10 µM (Malme-3M) of 1.71% and an inhibition of growth at 10 µM (HCT-116) of 29.1%. For the same compound, the inhibition of growth at 10 µM (HCC 2998) was 22.7%, the inhibition of growth at 10 µM (ACHN) was 28.8% and the inhibition of growth at 10 µM (SF-268) was 17%. For the same compound, the inhibition of growth at 10 µM (SR) was 93.7% and the inhibition of growth at 10 µM (OVCAR-5) was 27.1%.
